≈ marks a conversion by molar mass, not a printed value. One block for each compound: values may come before it.
Tests used:
Format in all cases: functional
Helminthosporium [1] = assay: Antifungal activity against Helminthosporium sp. assessed as growth inhibition at 1 mg/ml at 25 degC by agar well diffusion bioassay; conditions: read-out: GI
Alternaria alternata [2] = assay: Antifungal activity against Alternaria alternata assessed as growth inhibition at 4 mg/ml at 25 degC by agar well diffusion bioassay; conditions: read-out: GI
Pestalotiopsis sp. [3] = assay: Antifungal activity against Pestalotiopsis sp. assessed as growth inhibition at 4 mg/ml at 25 degC by agar well diffusion bioassay; conditions: read-out: GI
Pestalotiopsis sp. [4] = assay: Antifungal activity against Pestalotiopsis sp. assessed as growth inhibition at 1 mg/ml at 25 degC by agar well diffusion bioassay; conditions: read-out: GI
Colletotrichum acutatum [5] = assay: Antifungal activity against Colletotrichum acutatum assessed as growth inhibition at 3 mg/ml at 25 degC by agar well diffusion bioassay; conditions: read-out: GI
Colletotrichum acutatum [6] = assay: Antifungal activity against Colletotrichum acutatum assessed as growth inhibition at 4 mg/ml at 25 degC by agar well diffusion bioassay; conditions: read-out: GI
Colletotrichum acutatum [7] = assay: Antifungal activity against Colletotrichum acutatum assessed as growth inhibition at 25 degC after 48 hr by two-fold broth macrodilution method
Helminthosporium [8] = assay: Antifungal activity against Helminthosporium sp. assessed as growth inhibition at 2 mg/ml at 25 degC by agar well diffusion bioassay; conditions: read-out: GI
Alternaria alternata [9] = assay: Antifungal activity against Alternaria alternata assessed as growth inhibition at 2 mg/ml at 25 degC by agar well diffusion bioassay; conditions: read-out: GI
Alternaria alternata [10] = assay: Antifungal activity against Alternaria alternata assessed as growth inhibition at 3 mg/ml at 25 degC by agar well diffusion bioassay; conditions: read-out: GI
Pestalotiopsis sp. [11] = assay: Antifungal activity against Pestalotiopsis sp. assessed as growth inhibition at 25 degC after 48 hr by two-fold broth macrodilution method
Alternaria alternata [12] = assay: Antifungal activity against Alternaria alternata assessed as growth inhibition at 25 degC after 48 hr by two-fold broth macrodilution method
Colletotrichum acutatum [13] = assay: Antifungal activity against Colletotrichum acutatum assessed as growth inhibition at 2 mg/ml at 25 degC by agar well diffusion bioassay; conditions: read-out: GI
Pestalotiopsis sp. [14] = assay: Antifungal activity against Pestalotiopsis sp. assessed as growth inhibition at 2 mg/ml at 25 degC by agar well diffusion bioassay; conditions: read-out: GI
Alternaria alternata [15] = assay: Antifungal activity against Alternaria alternata assessed as growth inhibition at 1 mg/ml at 25 degC by agar well diffusion bioassay; conditions: read-out: GI
Helminthosporium [16] = assay: Antifungal activity against Helminthosporium sp. assessed as growth inhibition at 4 mg/ml at 25 degC by agar well diffusion bioassay; conditions: read-out: GI
Pestalotiopsis sp. [17] = assay: Antifungal activity against Pestalotiopsis sp. assessed as growth inhibition at 3 mg/ml at 25 degC by agar well diffusion bioassay; conditions: read-out: GI
Helminthosporium [18] = assay: Antifungal activity against Helminthosporium sp. assessed as growth inhibition at 3 mg/ml at 25 degC by agar well diffusion bioassay; conditions: read-out: GI
Helminthosporium [19] = assay: Antifungal activity against Helminthosporium sp. assessed as growth inhibition at 25 degC after 48 hr by two-fold broth macrodilution method
Colletotrichum acutatum [20] = assay: Antifungal activity against Colletotrichum acutatum assessed as growth inhibition at 1 mg/ml at 25 degC by agar well diffusion bioassay; conditions: read-out: GI

MIC (Colletotrichum acutatum [7]): 500 µg/mL (≈ 1490 µM)
MIC (Pestalotiopsis sp. [11]): 500 µg/mL (≈ 1490 µM)
MIC (Alternaria alternata [12]): 1000 µg/mL (≈ 2970 µM)
MIC (Helminthosporium [19]): 500 µg/mL (≈ 1490 µM)
Structure (SMILES): COc1ccc2c(=O)cc(-c3ccccc3)oc2c1/C=C/C(C)(C)O [LANCEOLATIN-A]
inhibition of growth at 1000 µg/mL (Helminthosporium [1]): 4.1%
inhibition of growth at 4000 µg/mL (Alternaria alternata [2]): 14.1%
inhibition of growth at 4000 µg/mL (Pestalotiopsis sp. [3]): 29.7%
inhibition of growth at 1000 µg/mL (Pestalotiopsis sp. [4]): 8.4%
inhibition of growth at 3000 µg/mL (Colletotrichum acutatum [5]): 22.6%
inhibition of growth at 4000 µg/mL (Colletotrichum acutatum [6]): 32.6%
inhibition of growth at 2000 µg/mL (Helminthosporium [8]): 7.7%
inhibition of growth at 2000 µg/mL (Alternaria alternata [9]): 6.6%
inhibition of growth at 3000 µg/mL (Alternaria alternata [10]): 8.1%
inhibition of growth at 2000 µg/mL (Colletotrichum acutatum [13]): 15.2%
inhibition of growth at 2000 µg/mL (Pestalotiopsis sp. [14]): 16.3%
inhibition of growth at 1000 µg/mL (Alternaria alternata [15]): 3.3%
inhibition of growth at 4000 µg/mL (Helminthosporium [16]): 16%
inhibition of growth at 3000 µg/mL (Pestalotiopsis sp. [17]): 23.8%
inhibition of growth at 3000 µg/mL (Helminthosporium [18]): 10.7%
inhibition of growth at 1000 µg/mL (Colletotrichum acutatum [20]): 10%

MIC (Colletotrichum acutatum [7]): 125 µg/mL (≈ 317 µM)
MIC (Pestalotiopsis sp. [11]): 250 µg/mL (≈ 634 µM)
MIC (Alternaria alternata [12]): 500 µg/mL (≈ 1270 µM)
MIC (Helminthosporium [19]): 250 µg/mL (≈ 634 µM)
Structure (SMILES): CC(=O)OC(C1COc2ccc3c(=O)cc(-c4ccccc4)oc3c21)C(C)(C)O (stereo not given) [TEPHROAPOLLIN-F]
inhibition of growth at 1000 µg/mL (Helminthosporium [1]): 18%
inhibition of growth at 4000 µg/mL (Alternaria alternata [2]): 32.8%
inhibition of growth at 4000 µg/mL (Pestalotiopsis sp. [3]): 51.7%
inhibition of growth at 1000 µg/mL (Pestalotiopsis sp. [4]): 21.7%
inhibition of growth at 3000 µg/mL (Colletotrichum acutatum [5]): 40.3%
inhibition of growth at 4000 µg/mL (Colletotrichum acutatum [6]): 58.3%
inhibition of growth at 2000 µg/mL (Helminthosporium [8]): 24.6%
inhibition of growth at 2000 µg/mL (Alternaria alternata [9]): 16%
inhibition of growth at 3000 µg/mL (Alternaria alternata [10]): 23.3%
inhibition of growth at 2000 µg/mL (Colletotrichum acutatum [13]): 31.9%
inhibition of growth at 2000 µg/mL (Pestalotiopsis sp. [14]): 26.1%
inhibition of growth at 1000 µg/mL (Alternaria alternata [15]): 11.9%
inhibition of growth at 4000 µg/mL (Helminthosporium [16]): 46.5%
inhibition of growth at 3000 µg/mL (Pestalotiopsis sp. [17]): 45.1%
inhibition of growth at 3000 µg/mL (Helminthosporium [18]): 36.3%
inhibition of growth at 1000 µg/mL (Colletotrichum acutatum [20]): 23.3%

More lines, now with the values behind:

Structure (SMILES): COC(=O)Nc1nc2ccccc2[nH]1 [CARBENDAZIM]
inhibition of growth at 1000 µg/mL (Helminthosporium [1]): 44.2%
inhibition of growth at 4000 µg/mL (Alternaria alternata [2]): 67.8%
inhibition of growth at 4000 µg/mL (Pestalotiopsis sp. [3]): 70.6%
inhibition of growth at 1000 µg/mL (Pestalotiopsis sp. [4]): 47.7%
inhibition of growth at 3000 µg/mL (Colletotrichum acutatum [5]): 73.9%
inhibition of growth at 4000 µg/mL (Colletotrichum acutatum [6]): 78.9%
MIC (Colletotrichum acutatum [7]): 70 µg/mL (≈ 366 µM)
inhibition of growth at 2000 µg/mL (Helminthosporium [8]): 61.1%
inhibition of growth at 2000 µg/mL (Alternaria alternata [9]): 56.7%
inhibition of growth at 3000 µg/mL (Alternaria alternata [10]): 63%
MIC (Pestalotiopsis sp. [11]): 70 µg/mL (≈ 366 µM)
MIC (Alternaria alternata [12]): 125 µg/mL (≈ 654 µM)
inhibition of growth at 2000 µg/mL (Colletotrichum acutatum [13]): 60.3%
inhibition of growth at 2000 µg/mL (Pestalotiopsis sp. [14]): 61.3%
inhibition of growth at 1000 µg/mL (Alternaria alternata [15]): 43.1%
inhibition of growth at 4000 µg/mL (Helminthosporium [16]): 79%
inhibition of growth at 3000 µg/mL (Pestalotiopsis sp. [17]): 68.4%
inhibition of growth at 3000 µg/mL (Helminthosporium [18]): 66.3%
MIC (Helminthosporium [19]): 70 µg/mL (≈ 366 µM)
inhibition of growth at 1000 µg/mL (Colletotrichum acutatum [20]): 50.6%

Structure (SMILES): CC(=O)O[C@@H]1C(C)(C)OC(=O)[C@]12COc1ccc3c(=O)cc(-c4ccccc4)oc3c12 [(+)-GLABRATEPHRIN]
inhibition of growth at 1000 µg/mL (Helminthosporium [1]): 13.9%
inhibition of growth at 4000 µg/mL (Alternaria alternata [2]): 24.1%
inhibition of growth at 4000 µg/mL (Pestalotiopsis sp. [3]): 31.9%
inhibition of growth at 1000 µg/mL (Pestalotiopsis sp. [4]): 8%
inhibition of growth at 3000 µg/mL (Colletotrichum acutatum [5]): 32.6%
inhibition of growth at 4000 µg/mL (Colletotrichum acutatum [6]): 46.4%
MIC (Colletotrichum acutatum [7]): 250 µg/mL (≈ 595 µM)
inhibition of growth at 2000 µg/mL (Helminthosporium [8]): 11.6%
inhibition of growth at 2000 µg/mL (Alternaria alternata [9]): 10%
inhibition of growth at 3000 µg/mL (Alternaria alternata [10]): 17%
MIC (Pestalotiopsis sp. [11]): 500 µg/mL (≈ 1190 µM)
MIC (Alternaria alternata [12]): 500 µg/mL (≈ 1190 µM)
inhibition of growth at 2000 µg/mL (Colletotrichum acutatum [13]): 26.4%
inhibition of growth at 2000 µg/mL (Pestalotiopsis sp. [14]): 11.8%
inhibition of growth at 1000 µg/mL (Alternaria alternata [15]): 5.3%
inhibition of growth at 4000 µg/mL (Helminthosporium [16]): 37.8%
inhibition of growth at 3000 µg/mL (Pestalotiopsis sp. [17]): 20.8%
inhibition of growth at 3000 µg/mL (Helminthosporium [18]): 23.3%
MIC (Helminthosporium [19]): 250 µg/mL (≈ 595 µM)
inhibition of growth at 1000 µg/mL (Colletotrichum acutatum [20]): 16.1%

Structure (SMILES): CC(=O)O[C@@H]1C(C)(C)OC(=O)[C@@]12COc1ccc3c(=O)cc(-c4ccccc4)oc3c12 [ISOGLABRATEPHRIN]
inhibition of growth at 1000 µg/mL (Helminthosporium [1]): 7.4%
inhibition of growth at 4000 µg/mL (Alternaria alternata [2]): 16.1%
inhibition of growth at 4000 µg/mL (Pestalotiopsis sp. [3]): 27.5%
inhibition of growth at 1000 µg/mL (Pestalotiopsis sp. [4]): 6.3%
inhibition of growth at 3000 µg/mL (Colletotrichum acutatum [5]): 37%
inhibition of growth at 4000 µg/mL (Colletotrichum acutatum [6]): 42.9%
MIC (Colletotrichum acutatum [7]): 250 µg/mL (≈ 595 µM)
inhibition of growth at 2000 µg/mL (Helminthosporium [8]): 16.3%
inhibition of growth at 2000 µg/mL (Alternaria alternata [9]): 8.4%
inhibition of growth at 3000 µg/mL (Alternaria alternata [10]): 10.7%
MIC (Pestalotiopsis sp. [11]): 1000 µg/mL (≈ 2380 µM)
MIC (Alternaria alternata [12]): 1000 µg/mL (≈ 2380 µM)
inhibition of growth at 2000 µg/mL (Colletotrichum acutatum [13]): 25.3%
inhibition of growth at 2000 µg/mL (Pestalotiopsis sp. [14]): 14.4%
inhibition of growth at 1000 µg/mL (Alternaria alternata [15]): 3.2%
inhibition of growth at 4000 µg/mL (Helminthosporium [16]): 32.6%
inhibition of growth at 3000 µg/mL (Pestalotiopsis sp. [17]): 17%
inhibition of growth at 3000 µg/mL (Helminthosporium [18]): 28.9%
MIC (Helminthosporium [19]): 1000 µg/mL (≈ 2380 µM)
inhibition of growth at 1000 µg/mL (Colletotrichum acutatum [20]): 14.4%

From ChEMBL document CHEMBL3045986, “Antifungal activity of prenylated flavonoids isolated from Tephrosia apollinea L. against four phytopathogenic fungi” (2013)
